Data reported in US8486962B2, “Antifungal agents” (F2G Ltd., priority 2005, dated 2013).
Values after ≈ are worked out from the molar mass of the structure shown. Like-named read-outs stand apart in the source and are kept apart here.

Columns and labels:
[1] = tested on: Aspergillus flavus; assay: MIC, YAG medium, Aspergillus flavus; format: cell-based; details: Aspergillus flavus, YAG medium
Outline: (§1)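 Yeast: RPMI + 2% glucose + 0.135M MOPS pH7.0, 1-2×10^3 cfu/ml, 35° C 24-48 h, OD485, MIC at >80% inhib. Aspergillus: YAG (1% glucose, 1% NH4Cl, 0.5% yeast extract), spores 1-2×10^4 cfu/ml, 35° C 24 h, MIC at >70% inhib. Range 50-0.05 mg/L.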

[2] = tested on: Aspergillus fumigatus AF293; assay: MIC, YAG medium, Aspergillus fumigatus AF293; format: cell-based; details: Aspergillus fumigatus, AF293; YAG medium; read-out: MIC A Fum. 293
Outline: as §1

[3] = tested on: Aspergillus niger; assay: MIC, YAG medium, Aspergillus niger; format: cell-based; details: Aspergillus niger, YAG medium
Outline: as §1

[4] = tested on: Aspergillus terreus; assay: MIC, YAG medium, Aspergillus terreus; format: cell-based; details: Aspergillus terreus, YAG medium
Outline: as §1

[5] = tested on: Aspergillus fumigatus AF210; assay: MIC, YAG medium, Aspergillus fumigatus AF210; format: cell-based; details: Aspergillus fumigatus, AF210; YAG medium; read-out: MIC A Fum. 210
Outline: as §1

[6] = tested on: A Terreus 49; assay: MIC, YAG medium, A Terreus 49; format: cell-based, Aspergillus terreus; details: Aspergillus terreus; YAG medium; read-out: MIC A Terreus 49
Outline: as §1

Structure (SMILES) | MIC ([1]; read-out: MIC A Flavus 01) [mg/L] | MIC [2] [mg/L] | MIC ([3]; read-out: MIC A Niger 1) [mg/L] | MIC ([4]; read-out: MIC A Terreus 4) [mg/L] | MIC [5] [mg/L] | MIC [6] [mg/L] | MIC ([1]; read-out: MIC A Flavus) [mg/L] | MIC ([3]; read-out: MIC A Niger) [mg/L] | MIC ([4]; read-out: MIC A Terreus) [mg/L]
O=C(Nc1ccc(Nc2ncccn2)cc1)C(=O)c1c(-c2ccccc2)cc2ccccn12 [Example 276, 2-Oxo-2-(2-phenyl-indolizin-3-yl)-N-[4-(pyrimidin-2-ylamino)-phenyl]-acetamide] | 0.05 (≈ 0.115 µM) | 0.1 (≈ 0.231 µM) | 0.05 (≈ 0.115 µM) | 0.05 (≈ 0.115 µM) | 0.2 (≈ 0.461 µM) | 0.015 (≈ 0.0346 µM) | – | – | –
O=C(Nc1ccc(F)cc1F)C(=O)c1c(-c2ccccc2Cl)cc2ccccn12 [Example 277, 2-[2-(2-Chloro-phenyl)-indolizin-3-yl]-N-(2,4-difluoro-phenyl)-2-oxo-acetamide] | 0.03 (≈ 0.073 µM) | 0.4 (≈ 0.974 µM) | 0.03 (≈ 0.073 µM) | 0.015 (≈ 0.0365 µM) | 0.05 (≈ 0.122 µM) | 0.2 (≈ 0.487 µM) | – | – | –
CN(C)Cc1ccc(NC(=O)C(=O)c2c(-c3ccccc3)cc3ccccn23)cc1 [Example 278, N-(4-Dimethylaminomethyl-phenyl)-2-oxo-2-(2-phenyl-indolizin-3-yl)-acetamide] | 6.25 (≈ 15.7 µM) | 25 (≈ 62.9 µM) | 25 (≈ 62.9 µM) | 6.25 (≈ 15.7 µM) | 12.5 (≈ 31.4 µM) | 12.5 (≈ 31.4 µM) | – | – | –
O=C(Nc1ccc(Cl)cc1)C(=O)c1c(-c2ccccc2)cc2ccccn12 [Example 281, N-(4-Chloro-phenyl)-2-oxo-2-(2-phenyl-indolizin-3-yl)-acetamide] | 0.031 (≈ 0.0827 µM) | 0.25 (≈ 0.667 µM) | 0.031 (≈ 0.0827 µM) | 0.031 (≈ 0.0827 µM) | 0.12 (≈ 0.32 µM) | 0.008 (≈ 0.0213 µM) | – | – | –
COc1ccc(NC(=O)C(=O)c2c(-c3ccccc3)cc3ccccn23)cc1C(C)=O [Example 282, N-(3-Acetyl-4-methoxy-phenyl)-2-oxo-2-(2-phenyl-indolizin-3-yl)-acetamide] | 0.008 (≈ 0.0194 µM) | 0.1 (≈ 0.242 µM) | 0.1 (≈ 0.242 µM) | 0.015 (≈ 0.0364 µM) | 0.1 (≈ 0.242 µM) | 0.004 (≈ 0.0097 µM) | – | – | –
Cc1ncccc1-c1cc2ccccn2c1C(=O)C(=O)Nc1ccc(OCC(F)(F)C(F)F)cc1 [Example 283, 2-[2-(2-Methyl-pyridin-3-yl)-indolizin-3-yl]-2-oxo-N-[4-(2,2,3,3-tetrafluoro-propoxy)-phenyl]-acetamide] | 0.015 (≈ 0.0309 µM) | 0.2 (≈ 0.412 µM) | 0.05 (≈ 0.103 µM) | 0.1 (≈ 0.206 µM) | 0.2 (≈ 0.412 µM) | 0.05 (≈ 0.103 µM) | – | – | –
CC(=O)Cc1ccc(NC(=O)C(=O)c2c(-c3ccccc3)cc3ccccn23)cc1 [Example 284, 2-Oxo-N-[4-(2-oxo-propyl)-phenyl]-2-(2-phenyl-indolizin-3-yl)-acetamide] | 0.05 (≈ 0.126 µM) | 0.1 (≈ 0.252 µM) | 0.05 (≈ 0.126 µM) | 0.05 (≈ 0.126 µM) | 0.1 (≈ 0.252 µM) | 0.015 (≈ 0.0378 µM) | – | – | –
O=C(Nc1ccc(Nc2nccs2)cc1)C(=O)c1c(-c2ccccc2)cc2ccccn12 [Example 285, 2-Oxo-2-(2-phenyl-indolizin-3-yl)-N-[4-(thiazol-2-ylamino)-phenyl]-acetamide] | 0.05 (≈ 0.114 µM) | 0.4 (≈ 0.912 µM) | 0.05 (≈ 0.114 µM) | 0.05 (≈ 0.114 µM) | 0.8 (≈ 1.82 µM) | 0.03 (≈ 0.0684 µM) | – | – | –
Cc1ccccc1-c1cc2ccccn2c1C(=O)C(=O)Nc1ccc(OCC(F)(F)C(F)F)nc1 [Example 286, 2-Oxo-N-[6-(2,2,3,3-tetrafluoro-propoxy)-pyridin-3-yl]-2-(2-o-tolyl-indolizin-3-yl)-acetamide] | 0.015 (≈ 0.0309 µM) | 0.1 (≈ 0.206 µM) | 0.015 (≈ 0.0309 µM) | 0.1 (≈ 0.206 µM) | 0.1 (≈ 0.206 µM) | 0.015 (≈ 0.0309 µM) | – | – | –
Cc1noc(C)c1-c1ccc(NC(=O)C(=O)c2c(-c3ccccc3)cc3ccccn23)cc1 [Example 287, N-[4-(3,5-Dimethyl-isoxazol-4-yl)-phenyl]-2-oxo-2-(2-phenyl-indolizin-3-yl)-acetamide] | 0.03 (≈ 0.0689 µM) | 0.05 (≈ 0.115 µM) | 0.015 (≈ 0.0344 µM) | 0.03 (≈ 0.0689 µM) | 0.1 (≈ 0.23 µM) | 0.008 (≈ 0.0184 µM) | – | – | –
O=C(Nc1cccc(-c2ncco2)c1)C(=O)c1c(-c2ccccc2)cc2ccccn12 [Example 288, N-(3-Oxazol-2-yl-phenyl)-2-oxo-2-(2-phenyl-indolizin-3-yl)-acetamide] | 0.015 (≈ 0.0368 µM) | 0.1 (≈ 0.245 µM) | 0.1 (≈ 0.245 µM) | 0.008 (≈ 0.0196 µM) | 0.2 (≈ 0.491 µM) | 0.004 (≈ 0.00982 µM) | – | – | –
CCCN(CCC)c1ccc(NC(=O)C(=O)c2c(-c3ccccc3)cc3ccccn23)cn1 [Example 289, N-(6-Dipropylamino-pyridin-3-yl)-2-oxo-2-(2-phenyl-indolizin-3-yl)-acetamide] | 0.004 (≈ 0.00908 µM) | 0.05 (≈ 0.113 µM) | 0.004 (≈ 0.00908 µM) | 0.008 (≈ 0.0182 µM) | 0.05 (≈ 0.113 µM) | 0.008 (≈ 0.0182 µM) | – | – | –
CCN(CC)c1ccc(NC(=O)C(=O)c2c(-c3ccccc3)cc3ccccn23)cc1C [Example 290, N-(4-Diethylamino-3-methyl-phenyl)-2-oxo-2-(2-phenyl-indolizin-3-yl)-acetamide] | 0.05 (≈ 0.117 µM) | 0.1 (≈ 0.235 µM) | 0.05 (≈ 0.117 µM) | 0.03 (≈ 0.0705 µM) | 0.2 (≈ 0.47 µM) | 0.003 (≈ 0.00705 µM) | – | – | –
O=C(Nc1ccc(-c2cnco2)cc1)C(=O)c1c(-c2ccccc2)cc2ccccn12 [Example 291, N-(4-Oxazol-5-yl-phenyl)-2-oxo-2-(2-phenyl-indolizin-3-yl)-acetamide] | 0.03 (≈ 0.0736 µM) | 0.8 (≈ 1.96 µM) | 0.05 (≈ 0.123 µM) | 0.015 (≈ 0.0368 µM) | 3.1 (≈ 7.61 µM) | 0.015 (≈ 0.0368 µM) | – | – | –
CN(C)c1ccc(NC(=O)C(=O)c2c(-c3ccccc3)cc3ccccn23)cc1-c1ncco1 [Example 292, N-(4-Dimethylamino-3-oxazol-2-yl-phenyl)-2-oxo-2-(2-phenyl-indolizin-3-yl)-acetamide] | 0.03 (≈ 0.0666 µM) | 0.4 (≈ 0.888 µM) | 0.8 (≈ 1.78 µM) | 0.03 (≈ 0.0666 µM) | 0.2 (≈ 0.444 µM) | 0.015 (≈ 0.0333 µM) | – | – | –
O=C(Nc1ccc(-c2nccs2)cc1)C(=O)c1c(-c2ccccc2)cc2ccccn12 [Example 293, 2-Oxo-2-(2-phenyl-indolizin-3-yl)-N-(4-thiazol-2-yl-phenyl)-acetamide] | 0.05 (≈ 0.118 µM) | 0.1 (≈ 0.236 µM) | 0.008 (≈ 0.0189 µM) | 0.015 (≈ 0.0354 µM) | 0.4 (≈ 0.945 µM) | 0.004 (≈ 0.00945 µM) | – | – | –
O=C(O)COc1cccc(NC(=O)C(=O)c2c(-c3ccccc3)cc3ccccn23)c1 [Example 294, {3-[2-Oxo-2-(2-phenyl-indolizin-3-yl)-acetylamino]-phenoxy}-acetic acid] | 25 (≈ 60.3 µM) | 25 (≈ 60.3 µM) | 50 (≈ 121 µM) | 50 (≈ 121 µM) | > 50 | 25 (≈ 60.3 µM) | – | – | –
C[S+]1CCN(c2ccc(NC(=O)C(=O)c3c(-c4ccccc4)cc4ccccn34)cc2)CC1.[I-] [Example 299, 1-Methyl-4-{4-[2-oxo-2-(2-phenyl-indolizin-3-yl)-acetylamino]-phenyl}-thiomorpholin-1-ium iodide] | 3.1 | 6.25 | 12.5 | 3.1 | 6.25 | 1.6 | – | – | –
O=C(Nc1ccc(C(F)(F)F)cc1)C(=O)c1c(-c2ccccc2)cc2ccccn12 [Example 304, 2-Oxo-2-(2-phenyl-indolizin-3-yl)-N-(4-trifluoromethyl-phenyl)-acetamide] | – | 0.25 (≈ 0.612 µM) | – | – | 0.25 (≈ 0.612 µM) | 0.015 (≈ 0.0367 µM) | 0.031 (≈ 0.0759 µM) | 0.015 (≈ 0.0367 µM) | 0.015 (≈ 0.0367 µM)
O=C(Nc1ccc(Cl)cc1Cl)C(=O)c1c(-c2ccccc2)cc2ccccn12 [Example 305, N-(2,4-Dichloro-phenyl)-2-oxo-2-(2-phenyl-indolizin-3-yl)-acetamide] | – | 0.5 (≈ 1.22 µM) | – | – | 0.5 (≈ 1.22 µM) | 0.015 (≈ 0.0367 µM) | 0.062 (≈ 0.151 µM) | 0.015 (≈ 0.0367 µM) | 0.031 (≈ 0.0757 µM)
O=C(Nc1cccc(C(F)(F)F)c1)C(=O)c1c(-c2ccccc2)cc2ccccn12 [Example 306, 2-Oxo-2-(2-phenyl-indolizin-3-yl)-N-(3-trifluoromethyl-phenyl)-acetamide] | – | 0.12 (≈ 0.294 µM) | – | – | 0.062 (≈ 0.152 µM) | 0.002 (≈ 0.0049 µM) | 0.008 (≈ 0.0196 µM) | 0.015 (≈ 0.0367 µM) | 0.004 (≈ 0.00979 µM)
O=C(Nc1ccc(N2CCCCC2)cc1)C(=O)c1c(-c2ccccc2)cc2ccccn12 [Example 307, 2-Oxo-2-(2-phenyl-indolizin-3-yl)-N-(4-piperidin-1-yl-phenyl)-acetamide] | – | 0.008 (≈ 0.0189 µM) | – | – | 0.05 (≈ 0.118 µM) | 0.001 (≈ 0.00236 µM) | 0.008 (≈ 0.0189 µM) | 0.008 (≈ 0.0189 µM) | 0.002 (≈ 0.00472 µM)
